Test system: colorectal carcinoma (HT-29 cells)
Test: Detection of colorectal carcinoma (HT-29 xenograft): scintigraphic imaging and uptake of radioactivity
Assay type: in vivo, female athymic nude mice
Method: Colorectal carcinoma was produced in female athymic nude mice by injecting subcutaneously 1×10^7 HT-29 cells (M.D. Anderson Hospital and Tumor Institute Houston, Tex.) per mouse in the hind limb. After 4 weeks, tumor bearing mice (2 per group) were injected intravenously with either sodium per-technetate (TcO4^-) or Tc-99m-glucarate (approximately350 uCi/mouse). […] After imaging at the last time point, animals were killed, tumors and organs were weighed and quantitated for the distribution of radioactivity.

[1] = 22 hours, approximately 350 uCi/mouse i.v.

[Na+].[O]=[Tc](=[O])(=[O])[O-] [TcO4^-, sodium pertechnetate]
% ID/gm at tumor site [1]: 0.29 ± 0.00 % ID/gm
tumor/blood [1]: 2.08 ± 0.21
tumor/muscle [1]: 12.08 ± 3.41
tumor visualization (images at 3, 5 and 24 hours): no tumor visualization was detected
uptake of radioactivity seen in scintigraphic images (images at 3, 5 and 24 hours after injection): nonspecific uptake of radioactivity at the thyroid and stomach

Reference: patent US4946668A, “Tumor imaging with technetium labelled glucarate” (Centocor, Inc., priority 1988, dated 1990)
